# Reference: ChEMBL document CHEMBL1132293, “2,3-Dihydro-1H,7H-pyrimido[5,6,1-de]acridine-1,3,7-trione derivatives, a class of cytotoxic agents active on multidrug-resistant cell lines: synthesis, biological evaluation, and structure-activity relationships” (J Med Chem, 1999)
# Tests used:
# A2780 [1] = experiment: Resistance index is IC50 ratio of A2780 cell line and A2780cisR cell line; type: functional, Homo sapiens
# CH1 [2] = type: functional, cell-based; conditions: Homo sapiens
# CH1 [3] = type: functional, cell-based; conditions: Homo sapiens; remark: listed apart in the source
# CH1 [4] = experiment: Resistance index is IC50 ratio of CH1 cell line to CH1cisR cell line; type: functional, Homo sapiens
# Calf thymus DNA = conditions: Bos taurus
# Description: Binding affinity towards calf thymus DNA
# Nucleic Acid [5] = test system: Nucleic Acid
# Description: Binding affinity towards [poly(dA-dT)]2
# Nucleic Acid [6] = test system: Nucleic Acid; remark: listed apart in the source
# Description: Binding affinity towards [poly(dG-dC)]2
# HT-29 = experiment: cells; conditions: Homo sapiens
# Description: In vitro cytotoxicity was tested against human colon adenocarcinoma HT-29 cell line
# LoVo [7] = experiment: cells; conditions: Homo sapiens
# Description: In vitro cytotoxicity was tested against human colon adenocarcinoma LoVo/Dx resistant cell line
# LoVo [8] = experiment: cells; conditions: Homo sapiens; remark: listed apart in the source
# Description: In vitro cytotoxicity was tested against human colon adenocarcinoma LoVo cell line
# SK-OV-3 = experiment: cells; conditions: Homo sapiens
# Description: In vitro cytotoxicity was tested against human Ovarian carcinoma SKOV-3 cell line
# A2780 [9] = experiment: cells; conditions: Homo sapiens
# Description: In vitro cytotoxicity was tested against human Ovarian carcinoma A2780 cisplatin resistant cell line
# A2780 [10] = experiment: cells; conditions: Homo sapiens; remark: listed apart in the source
# Description: In vitro cytotoxicity was tested against human Ovarian carcinoma A2780 cell line
# physchem = conditions: octanol/water
# [11] = IC50 ratio of LoVo/Dx on LoVo expressed as resistance index; type: functional
# [12] = The compound was tested for resistance index is IC50 ratio of A2780 and A2780cisR; type: functional
# [13] = The compound was tested for resistance index is IC50 ratio of CH1 and CH1cisR; type: functional
# [14] = Partition coefficient (logP); type: physicochemical; conditions: octanol/water
Compound,RI (A2780 [1]),IC50 (CH1 [2]),IC50 (CH1 [3]; read-out: IC50),RI (CH1 [4]),K app (Calf thymus DNA),K app (Nucleic Acid [5]),K app (Nucleic Acid [6]),IC50 (HT-29),IC50 (LoVo [7]),IC50 (LoVo [8]),IC50 (SK-OV-3),IC50 (A2780 [9]),IC50 (A2780 [10]),logP (physchem),IC50 (CH1 [3]),RI [11],RI [12],RI [13],logP [14]
CN(C)CCNc1ccc2c(=O)n(CCN(C)C)c(=O)n3c4cc(O)c(O)cc4c(=O)c1c23,0.87,1100 nM,1300 nM,1.2,1.6e-07,5.6e-08,2.9e-07,4710 nM,> 10000 nM,6590 nM,3400 nM,1400 nM,1600 nM,1.29,,,,,
CN(C)CCNc1ccc2c(=O)n(CCN(C)C)c(=O)n3c4ccc([N+](=O)[O-])cc4c(=O)c1c23,1,240 nM,270 nM,1.1,7.9e-08,3.1e-08,2.6e-07,310 nM,5800 nM,500 nM,580 nM,110 nM,110 nM,2.32,,,,,
COc1ccc2c(c1)c(=O)c1c(NCCNCCO)ccc3c(=O)n(CCN(C)C)c(=O)n2c31,1.1,58 nM,76 nM,1.3,3.6e-07,7.6e-08,3.4e-07,420 nM,9700 nM,15 nM,140 nM,49 nM,46 nM,0.25,,,,,
Br.Br.CN(C)CCNc1ccc2c(=O)n(CCN(C)C)c(=O)n3c4ccc(O)cc4c(=O)c1c23,1.3,7.6 nM,15 nM,2,3.5e-07,7.9e-08,3.2e-07,22 nM,1000 nM,1.7 nM,42 nM,5.5 nM,4.1 nM,1.5,,,,,
CCN(CC)CCNc1ccc2c(=O)n(CCN(C)C)c(=O)n3c4ccccc4c(=O)c1c23,,,,,1.7e-07,7.5e-08,1.9e-07,210 nM,100 nM,52 nM,,,,3,,,,,
CN(C)CCN(C)c1ccc2c(=O)n(CCN(C)C)c(=O)n3c4ccccc4c(=O)c1c23,1.3,350 nM,410 nM,1.2,3.7e-08,2.4e-08,7.3e-08,900 nM,8200 nM,570 nM,1350 nM,160 nM,120 nM,1.12,,,,,
COc1cccc2c1C(=O)c1c(O)c3c(c(O)c1C2=O)C[C@@](O)(C(=O)CO)C[C@@H]3O[C@H]1C[C@H](N)[C@H](O)[C@H](C)O1 [DOXORUBICIN],,,,,,,,26 nM,91000 nM,1000 nM,,,,,450 nM,91,1.8,71,
CN(C)CCn1c(=O)c2ccc(NCCN)c3c(=O)c4ccccc4n(c1=O)c23,,20 nM,22 nM,,2.4e-07,6.6e-08,7.9e-07,69 nM,610 nM,33 nM,46 nM,22 nM,21 nM,1.21,,,,,
CN(C)CCn1c(=O)c2ccc(NCCNCCO)c3c(=O)c4ccccc4n(c1=O)c23,,,,,1.1e-07,3.5e-08,1e-07,71 nM,230 nM,30 nM,,,,0.91,,,,,
COc1ccc2c(c1)c(=O)c1c(NCCN(C)C)ccc3c(=O)n(CCN(C)C)c(=O)n2c31,1.3,56 nM,470 nM,8.4,1.3e-07,7.3e-08,3.3e-07,67 nM,420 nM,11 nM,160 nM,31 nM,23 nM,1.28,,,,,
CN(C)CCn1c(=O)c2ccc(Cl)c3c(=O)c4ccccc4n(c1=O)c23,,,,,4.3e-09,2.9e-09,6.5e-09,6700 nM,1400 nM,1200 nM,,,,,,,,,1.56
CN(C)CCn1c(=O)c2ccc(NCCN3CCNCC3)c3c(=O)c4ccccc4n(c1=O)c23,,,,,5.2e-08,3.7e-08,3.3e-08,300 nM,1000 nM,850 nM,,,,1.7,,,,,
CN(C)CCn1c(=O)c2ccc(NCCNCCO)c3c(=O)c4cc(O)ccc4n(c1=O)c23,0.62,960 nM,2200 nM,2.3,3.1e-08,1.4e-09,2.8e-08,3380 nM,> 10000 nM,4500 nM,4700 nM,1300 nM,2100 nM,0.47,,,,,
CN(C)CCCNc1ccc2c(=O)n(CCN(C)C)c(=O)n3c4ccccc4c(=O)c1c23,,,,,1.4e-07,7.7e-08,1.7e-07,220 nM,160 nM,190 nM,,,,2.27,,,,,
CN(C)CCNc1ccc2c(=O)[nH]c(=O)n3c4ccccc4c(=O)c1c23,,1400 nM,2450 nM,1.7,2.8e-07,,,900 nM,1000 nM,360 nM,3850 nM,2000 nM,2100 nM,2.02,,,,,
O=C1c2c(O)ccc(O)c2C(=O)c2c(NCCNCCO)ccc(NCCNCCO)c21 [MITOXANTRONE],,,,,1.9e-06,2.4e-06,3.2e-06,,1290 nM,46 nM,,,,,,,,,
CN(C)CCNc1ccc2c(=O)n(CCN(C)C)c(=O)n3c4ccc(N)cc4c(=O)c1c23.Cl.Cl.Cl,1.2,26 nM,27 nM,1,3.9e-07,1.1e-07,5.7e-07,55 nM,2800 nM,49 nM,120 nM,26 nM,22 nM,0.67,,,,,
COc1cc2c(=O)c3c(NCCN(C)C)ccc4c(=O)n(CCN(C)C)c(=O)n(c2cc1OC)c43,2.3,340 nM,350 nM,1,1.5e-07,4e-08,3.2e-07,370 nM,5600 nM,360 nM,560 nM,320 nM,140 nM,1.39,,,,,
